Test results reported in US7846473B2, “Irinotecan preparation” (Terumo Kabushiki Kaisha, priority 2004, dated 2010).

Legend:
Assay type in all cases: in vivo
[1] = Pharmacokinetics due to single administration in Meth A tumor-bearing mouse (plasma and tumor); conditions: Meth A-bearing BALB/c mouse, 10 mg/kg i.v.
[2] = system: Mouse fibrosarcoma (Meth A); experiment: Antitumor effect due to administration of a drug once or twice, Meth A; conditions: Meth A in BALB/c mouse; for Inhibition rate (%) / Tumor weight (g, mean ± S.D.): 21 days from transplantation
Description: Mouse fibrosarcoma (Meth A), 2.5×10^5 cells/mouse were transplanted subcutaneously in an inguinal region of a mouse (BALB/c, female, 7 weeks old, CLEA Japan, Inc.). […] Mice without injection of any agent were employed as a control group.
The tumors were also removed after 21 days from the transplantation and weight of the tumors was measured, to thereby calculate tumor proliferation inhibition rate, I.R. (%) by the formula as shown in Test Example 6.

[3] = system: Human colon cancer cells (HT-29); experiment: Antitumor effect, human colon cancer HT-29 transplanted in mouse; conditions: HT-29 in BALB/c nude mouse; for Inhibition rate (%) / Tumor weight (g, mean ± S.D.): 21 days after injection
Description: Human colon cancer cells (HT-29) with 2 to 3 mm square were transplanted subcutaneously in an inguinal region of a mouse (BALB/c nude, male, 6 weeks old, CLEA Japan, Inc.) with a needle for transplantation. […] Mice without injection of either agent were employed as a control group.
The estimated volume of tumors and a body weight of the mouse were calculated at 4, 8, 12, 17, 21 days after a first injection. The tumors were also removed 21 days after the injection and the weight of the tumors were measured, to thereby calculate a tumor proliferation inhibition rate, I.R. (%) by the formula as shown in Test Example 6.

Retentivity in blood = conditions: female, plasma, iv; BALB/c mouse, 10 mg/kg i.v. tail, elapsed time 1 hr; read-out: Concentration in plasma of irinotecan hydrochloride
[4] = system: neutrophils and lymphocytes; experiment: Hemotoxicity in rat; conditions: i.v. tail vein
Description: Collecting blood of 0.4 mL from a cervical vein of the rat before and after injection; and after 2, 4, 6, 13, 20, and 27 days (for 4 weeks); the number of neutrophils and lymphocytes was measured with automated hematology analyzer (Sysmex XT-2000i, Sysmex). FIGS. 12 and 13 show the results.

[5] = system: human colon cancer cells (HCT116); experiment: Antitumor effect, human colon cancer HCT116 implanted in mouse; conditions: HCT116 in BALB/c nude mouse; for Inhibition rate (%) / Tumor weight (g, mean ± S.D.): 21 days after injection
Description: (§1) 2×10^6 cells/mouse of human colon cancer cells (HCT116) were implanted subcutaneously in left inguinal region of the mouse (BALB/c nude, ♂, 6 weeks old, Charles River Japan, Inc.). After implanting tumors, a presumptive tumor volume was calculated by ½·ab^2 (a represents a longitudinal diameter of a tumor and b represents a short axis diameter thereof) achieved to about 90 mm^3 in a day (Day 0). […] There were mice without injection of either agent as a control group.
A presumptive tumor volume and a body weight of a mouse were measured after 5, 8, 12, 16, and 21 days from the injection. Extracting tumors 21 days after the injection and measuring a weight thereof, further, an inhibition rate of tumor growth I.R. (%) was calculated by the formula as shown in Test Example 6.

[6] = system: human prostatic cancer cells (PC-3); experiment: Antitumor effect, human prostatic cancer PC-3 implanted in mouse; conditions: PC-3 in BALB/c nude mouse; for Inhibition rate (%) / Tumor weight (g, mean ± S.D.): Day 22
Source text: as §1, with “2.5×10^6” for “2×10^6”, “prostatic” for “colon”, “(PC-3)” for “(HCT116)”, “male,” for “♂,”, “volume” for “volume was”, “thereof).” for “thereof) achieved to about 90 mm^3 in a day (Day 0).”
A presumptive tumor volume and a body weight of a mouse were measured at Days 1, 5, 9, 12, 16, and 22.
After extracting tumors and measuring a weight thereof at Day 22, further, an inhibition rate of tumor growth I.R. (%) was calculated by the following formula. I.R. %=(1−average tumor weight in a treatment group/average tumor weight in a control group)×100

[7] = system: Mouse fibrosarcoma (Meth A); experiment: Antitumor effect due to administration of a drug three times, Meth A; conditions: Meth A in BALB/c mouse; for Inhibition rate (%) / Tumor weight (g, mean ± S.D.): 21 days from transplantation
Description: Mouse fibrosarcoma (Meth A), 2.5×10^5 cells/mouse were transplanted subcutaneously in an inguinal region of a mouse (BALB/c, female, 7 weeks old, CLEA Japan, Inc.). […] Mice without injection of either agent were employed as a control group.
The tumors were also removed after 21 days from the transplantation and weight of the tumors was measured, to thereby calculate each tumor proliferation inhibition rate, I.R. (%) by the formula as shown in Test Example 6.

[8] = system: Human lung cancer cells (QG56); experiment: Antitumor effect, human lung cancer QG56 transplanted in mouse; conditions: QG56 in BALB/c nude mouse; for Inhibition rate (%) / Tumor weight (g, mean ± S.D.): 21 days after first injection
Description: Human lung cancer cells (QG56) with 2 to 3 mm square were transplanted subcutaneously in an inguinal region of a mouse (BALB/c nude, male, 6 weeks old, CLEA Japan, Inc.) with a needle for transplantation. […] Mice without injection of either agent were employed as a control group.
The estimated volume of each tumor and a body weight of the mouse were calculated 4, 8, 12, 16, and 21 days after the first injection. The tumors were also removed 21 days after the first injection and a weight of the tumors was measured, to thereby calculate each tumor proliferation inhibition rate, I.R. (%) by the formula as shown in Test Example 6. The results are shown in Table 16, FIG. 28, and FIG. 29.

[9] = Pharmacokinetics in cynomolgus monkey
Description: Providing 50 μL of blood plasma with 550 μL of an internal standard solution B (a methanol solution of internal standard substances) and employing centrifugal force, the supernatant was diluted with methanol 100-fold as a sample for the total CPT-11 concentration measurement. Meanwhile, Providing 50 μL of each blood plasma with 200 μL of an internal standard solution A (0.147 mol/L H3PO4 solution of internal standard substances), 200 μL thereof was subjected to a centrifugal separation (100,000×g, for 30 min, 10° C.). 100 μL in upper layer were separated and were employed solid-phase extraction, to obtain the eluent as samples for free CPT-11 (i.e., CPT-11 released from liposome, hereinafter referred as “liposome-released CPT-11”) concentration measurement, SN-38 concentration measurement, and SN-38G (SN-38 10-O-gluclonide) concentration measurement. The samples obtained were measured each concentration thereof with LC/MS/MS. FIGS. 8 to 11 show the results.

[10] = 12.5 mg/kg i.v., treatment on day 7
[11] = 12.5 mg/kg i.v., treatment on days 7, 11
[12] = 25 mg/kg i.v., treatment on day 7
[13] = 25 mg/kg i.v., treatment on day 11
[14] = 25 mg/kg i.v., treatment on days 7, 11
[15] = 50 mg/kg i.v., treatment on day 7
[16] = 50 mg/kg i.v., treatment on day 11
[17] = 50 mg/kg i.v., treatment on days 7, 11
[18] = 50 mg/kg i.v., treatment on days 7, 9, 11
[19] = 50 mg/kg i.v., treatment on days 7, 11, 15
[20] = 100 mg/kg i.v., treatment on days 7, 9, 11
[21] = 100 mg/kg i.v., treatment on days 7, 11, 15

- time of maximum concentration of irinotecan hydrochloride in the tumor tissue [1]: 0.5 h
- concentration at 1 h (Retentivity in blood): 390 ng/mL
- time of highest SN-38 concentration in blood plasma ([9]; 10 mg/kg i.v.): immediately after injection
- time of highest free (liposome-released) CPT-11 concentration in blood plasma ([9]; 10 mg/kg i.v.): immediately after injection
- concentration at 1 h ([9]; male, plasma, iv, 10 mg/kg i.v. over 4 min, until 1 hour, lower limit of quantification, read-out: total CPT-11 concentration in blood plasma): < 1000 ng/mL
SMILES: CCc1c2c(nc3ccc(OC(=O)N4CCC(N5CCCCC5)CC4)cc13)-c1cc3c(c(=O)n1C2)COC(=O)[C@]3(O)CC [(+)-(4S)-4,11-diethyl-4-hydroxy-9-[(4-piperidino-piperidino)carbonyloxy]-1H-pyrano[3′,4′:6,7]indolizino[1,2-b]quinolin-3,14(4H,12H)-dione]
- Inhibition rate (%) [2, 10]: 20.2%
- Tumor weight (g, mean ± S.D.) [2, 10]: 2.82 ± 0.51 g
- Inhibition rate (%) [2, 11]: 29.4%
- Tumor weight (g, mean ± S.D.) [2, 11]: 2.49 ± 0.29 g
- Inhibition rate (%) [2, 12]: 26.0%
- Tumor weight (g, mean ± S.D.) [2, 12]: 2.61 ± 0.40 g
- Inhibition rate (%) [2, 13]: 32.1%
- Tumor weight (g, mean ± S.D.) [2, 13]: 2.40 ± 0.74 g
- Inhibition rate (%) [2, 14]: 34.1%
- Tumor weight (g, mean ± S.D.) [2, 14]: 2.33 ± 0.62 g
- Inhibition rate (%) [2, 15]: 33.7%
- Tumor weight (g, mean ± S.D.) [2, 15]: 2.34 ± 0.17 g
- Inhibition rate (%) [2, 16]: 44.0%
- Tumor weight (g, mean ± S.D.) [2, 16]: 1.98 ± 0.45 g
- Inhibition rate (%) [2, 17]: 41.2%
- Tumor weight (g, mean ± S.D.) [2, 17]: 2.08 ± 0.43 g
- effect on body weight of the mouse ([2]; 12.5-50 mg/kg i.v. once or twice): didn't affect the body weight of the mouse
- tumor proliferation compared to the control group ([2]; one or two administrations): significant tumor proliferation inhibitory effect compared to the control group unless a part of the physiological saline solutions of irinotecan hydrochloride
- tumor proliferation compared with the control group [3]: strong tumor proliferation inhibitory effect
- Inhibition rate (%) ([3]; 25 mg/kg i.v. days 1, 5, 9): 38.2%
- Tumor weight (g, mean ± S.D.) ([3]; 25 mg/kg i.v. days 1, 5, 9): 0.36 ± 0.41 g
- Inhibition rate (%) ([3]; 50 mg/kg i.v. days 1, 5, 9): 24.9%
- Tumor weight (g, mean ± S.D.) ([3]; 50 mg/kg i.v. days 1, 5, 9): 0.44 ± 0.36 g
- Inhibition rate (%) ([3]; 100 mg/kg i.v. days 1, 5, 9): 44.0%
- Tumor weight (g, mean ± S.D.) ([3]; 100 mg/kg i.v. days 1, 5, 9): 0.33 ± 0.32 g
- effect on body weight of the mouse ([3]; 25-100 mg/kg i.v. days 1, 5, 9): didn't affect the body weight of the mouse
- number of lymphocytes [4]: on a decline immediately after injection albeit only slightly
- tumor growth compared to the control group [5]: significant suppressive effect of tumor growth
- Inhibition rate (%) ([5]; 18.75 mg/kg i.v. Days 1, 5, 9): 39.0%
- Tumor weight (g, mean ± S.D.) ([5]; 18.75 mg/kg i.v. Days 1, 5, 9): 0.76 ± 0.06 g
- Inhibition rate (%) ([5]; 37.5 mg/kg i.v. Days 1, 5, 9): 43.4%
- Tumor weight (g, mean ± S.D.) ([5]; 37.5 mg/kg i.v. Days 1, 5, 9): 0.71 ± 0.08 g
- Inhibition rate (%) ([5]; 75 mg/kg i.v. Days 1, 5, 9): 57.4%
- Tumor weight (g, mean ± S.D.) ([5]; 75 mg/kg i.v. Days 1, 5, 9): 0.53 ± 0.14 g
- influence on body weight of the mouse ([5]; 18.75-75 mg/kg i.v. Days 1, 5, 9): did not influence the body weight of the mouse
- tumor growth compared to the control group [6]: significant suppressive effect of tumor growth
- Inhibition rate (%) ([6]; 25 mg/kg i.v. days 1, 5, 9): 49.0%
- Tumor weight (g, mean ± S.D.) ([6]; 25 mg/kg i.v. days 1, 5, 9): 0.64 ± 0.25 g
- Inhibition rate (%) ([6]; 50 mg/kg i.v. days 1, 5, 9): 48.0%
- Tumor weight (g, mean ± S.D.) ([6]; 50 mg/kg i.v. days 1, 5, 9): 0.66 ± 0.13 g
- Inhibition rate (%) ([6]; 100 mg/kg i.v. days 1, 5, 9): 62.3%
- Tumor weight (g, mean ± S.D.) ([6]; 100 mg/kg i.v. days 1, 5, 9): 0.48 ± 0.20 g
- influence on body weight of the mouse ([6]; 25-100 mg/kg i.v. days 1, 5, 9): did not influence the body weight of the mouse
- Inhibition rate (%) [7, 18]: 26.9%
- Tumor weight (g, mean ± S.D.) [7, 18]: 1.47 ± 0.18 g
- Inhibition rate (%) [7, 19]: 1.0%
- Tumor weight (g, mean ± S.D.) [7, 19]: 1.99 ± 0.47 g
- Inhibition rate (%) [7, 20]: 86.0%
- Tumor weight (g, mean ± S.D.) [7, 20]: 0.28 ± 0.42 g
- Inhibition rate (%) [7, 21]: 37.4%
- Tumor weight (g, mean ± S.D.) [7, 21]: 1.26 ± 0.49 g
- effect on body weight of the mouse ([7]; 50-100 mg/kg i.v. three times): didn't affect the body weight of the mouse
- tumor proliferation compared to the control group ([7]; three administrations): significant tumor proliferation inhibitory effect
- tumor proliferation compared to the control group [8]: significant tumor proliferation inhibitory effect
- Inhibition rate (%) ([8]; 25 mg/kg i.v. days 1, 5, 9): 35.5%
- Tumor weight (g, mean ± S.D.) ([8]; 25 mg/kg i.v. days 1, 5, 9): 1.88 ± 0.43 g
- Inhibition rate (%) ([8]; 50 mg/kg i.v. days 1, 5, 9): 48.7%
- Tumor weight (g, mean ± S.D.) ([8]; 50 mg/kg i.v. days 1, 5, 9): 1.49 ± 0.51 g
- Inhibition rate (%) ([8]; 100 mg/kg i.v. days 1, 5, 9): 67.2%
- Tumor weight (g, mean ± S.D.) ([8]; 100 mg/kg i.v. days 1, 5, 9): 0.95 ± 0.18 g
- effect on body weight of the mouse ([8]; 25-100 mg/kg i.v. days 1, 5, 9): didn't affect the body weight of the mouse
